Experiment [1] has as its target T1, AQ STING (G230A-R293Q) (Homo sapiens, UniProt Q86WV6, G230A/H232R/R293Q).
T1 construct: 8xHis (N, cleaved yes); SUMO (N, cleaved yes); made in house; host or cells: E. coli Rosetta-gami B (DE3)
Put plainly: Differential scanning fluorimetry (DSF) with AQ STING. It is filed as binding. The following applies: thermal shift vs apoprotein; 150 μM CDN; truncated human AQ STING 0.1 mg/ml. The procedure:
(§1) Purified PCR products were cleaved with restriction enzymes BamHI (cat. #R0136S, NEB, Ipswich, USA) and NotI (cat. #R0189S, NEB, Ipswich, USA) and cloned into the pSUMO vector linearized with the identical enzymes.
(§2) DNase I (cat. #D5025, Sigma Aldrich, Czech Republic) and RNase A (cat. #R6513, Sigma Aldrich, Czech Republic) were added (final concentration 50 μg/ml) together with MgCl2 (final concentration 5 mmol·l^−1) to the homogenate and bacteria were lysed using French Press G-M™ High-Pressure Cell Press Homogenizer (1500 psi, 3 cycles). […] The resin was poured into a chromatography column, washed with 50 ml buffer A (50 mmol·l^−1 TrisCl (pH 8.0), 800 mmol·l^−1 NaCl, 3 mmol·l^−1 β-mercaptoethanol; 10% glycerol; 20 mmol·l^−1 imidazol) and 8-His-SUMO tagged STING proteins were eluted with 15 ml buffer A containing 300 mmol·l^−1 imidazole. […] Proteins were concentrated with Amicon® Ultra-15 10 K device (cat. #UFC901008, Merck Millipore, Billerica, USA) and flash frozen in liquid N2.
(§3) 20 μL solutions of the reaction mixtures were pipetted in triplicates into 96 well optical reaction plates and thermal denaturation of samples were performed on real time PCR cycler (LightCycler® 480 Instrument II—Roche, Basel, Switzerland). The first derivative of the thermal denaturation curves was performed to calculate denaturing temperatures of STING-CDN complexes and STING apoproteins. The thermal shift for each CDN was calculated by subtracting the average denaturing temperature of STING apoprotein from the average denaturing temperature of STING CDN complex.

The target of experiment [2] is T2, WT STING (Homo sapiens, UniProt Q86WV6, H232R). Put plainly: Digitonin assay using 293T wtSTING-FL reporter cells. It is filed as cell-based. Also on record: host or cells: 293T (ATCC CRL-3216), stably transfected, with 4xISRE firefly luciferase reporter. The note with it: 293T wtSTING-FL cells, ISRE firefly luciferase; compounds in Digitonin buffer 30 minutes, then 5 hours; 8-point curve. From the text:
Two complementary oligonucleotides of the sequence […] […] […] […] […] The oligonucleotides were mixed in equal molar amounts, hybridized, and cleaved by restriction endonucleases HindIII (cat. #. R0104S, NEB, Ipswich, USA) and BglII (cat. #R0144S, NEB, Ipswich, USA). Ultimately, they were ligated into plasmid pGL4.27 (cat. #E6651, Promega, Madison, USA) linearized with the same enzymes. As result the sequence with four ISRE sites was placed upstream of the minimum promoter of firefly luciferase reporter gene.
After 5 minutes incubation at room temperature (RT), 250 μL of the mixture was added dropwise to the cells in one well. Cells were incubated 36 hours at 37° C. with 5% CO2, and then detached with 0.05% Trypsin and 0.22 g/L EDTA (both cat. #L0941, Biowest, Riverside, USA).
Transfected cells were seeded onto poly-D-lysine coated six well plates at density 50,000 cells per 1 cm^2 in DMEM medium with high glucose containing 10% heat inactivated FBS, 30 μg/mL blasticidin (cat. #ant-b1-05, InvivoGen, San Diego, USA), 0.06 mg/ml Penicillin G and 0.1 mg/ml Streptomycin Sulfate (both cat. #. L0018, Biowest, Riverside, USA). The medium was replenished every 3-4 days until visible colonies of cells resistant to blasticidin were formed.
Blasticidin resistant cells stably expressing WT STING were further transfected with […] plasmid following the same procedure as described above. […] Homogeneous culture of stably double transfected cells was prepared by limiting dilution of cells in 96 well plates and wells with cells were selected that originated from a single cell.
The medium was removed next day and three fold serial dilutions of compounds in Digitonin buffer containing 50 mmol·l^−1 HEPES (cat. #H3375, Sigma Aldrich, Czech Republic) pH 7.0, 100 mmol·l^−1 KCl, 3 mmol·l^−1 MgCl2, 0.1 mmol·l^−1 DTT (cat. #D0632, Sigma Aldrich, Czech Republic), 85 mmol·l^−1 Sucrose (cat. #S7903, Sigma Aldrich, Czech Republic), 0.2% BSA (cat. #A2153, Sigma Aldrich, Czech Republic), 1 mmol·l^−1 ATP (cat. #A1852, Sigma Aldrich, Czech Republic), 0.1 mmol·l^−1 GTP (cat. #G8877, Sigma Aldrich, Czech Republic), and 10 μg/mL Digitonin A (cat. #D141, Sigma Aldrich, Czech Republic) were added to the cells. The buffer was removed after 30 minutes incubation at 37° C. with 5% CO2, the cells were washed once with 100 μl of cultivation medium, and 100 μl of medium was added to each well. The plates with cells were incubated for 5 hours at 37° C. with 5% CO2, 50 μl of the medium was removed and 30 μl of ONE-Glo™ Luciferase Assay System reagent (cat. #E6120, Promega, Madison, USA) was added to each well. Luminescence was read on Synergy H1 (Biotek, Winooski, USA). GraphPad Prism (La Jolla, USA) was used to calculate the 50% effective concentration ([…] from an 8-point dose-response curve.
Target sequence in this assay (Q86WV6 whole entry H232R): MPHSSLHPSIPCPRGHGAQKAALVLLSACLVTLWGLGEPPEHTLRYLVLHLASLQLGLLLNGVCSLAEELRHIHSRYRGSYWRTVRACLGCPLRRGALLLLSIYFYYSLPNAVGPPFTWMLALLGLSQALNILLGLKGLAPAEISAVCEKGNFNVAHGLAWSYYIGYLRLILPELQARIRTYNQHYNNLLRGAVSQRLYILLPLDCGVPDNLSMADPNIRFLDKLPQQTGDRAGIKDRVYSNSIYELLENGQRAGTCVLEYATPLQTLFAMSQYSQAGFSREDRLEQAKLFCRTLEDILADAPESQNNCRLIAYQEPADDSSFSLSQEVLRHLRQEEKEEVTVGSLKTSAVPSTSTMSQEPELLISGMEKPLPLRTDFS

Experiment [3] has as its target T2, WT STING. Put plainly: Differential scanning fluorimetry (DSF) with WT STING. The class given is binding. Also on record: 8xHis (N, cleaved yes); SUMO (N, cleaved yes); made in house; host or cells: E. coli Rosetta-gami B (DE3). The following applies: thermal shift vs apoprotein; 150 μM CDN; truncated human WT STING 0.1 mg/ml. The method, then: as §1, §2, §3
Target sequence in this assay (Q86WV6 140-343 H232R): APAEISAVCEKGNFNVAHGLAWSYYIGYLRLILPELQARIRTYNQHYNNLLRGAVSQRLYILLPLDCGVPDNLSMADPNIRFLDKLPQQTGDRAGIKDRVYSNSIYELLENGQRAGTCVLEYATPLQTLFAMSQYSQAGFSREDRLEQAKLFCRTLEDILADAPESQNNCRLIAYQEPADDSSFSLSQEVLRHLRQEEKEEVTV

Each structure is given as a SMILES string.

T1 sequence (Q86WV6 140-343 G230A/H232R/R293Q): as the sequence (Q86WV6 140-343 H232R) above, with G91A, R154Q counted along it

As to `Nc1ncnc2c1ncn2[C@@H]1C[C@@H]2COP(=O)(O)OC3C(F)[C@H](n4cnc5c(N)ncnc54)O[C@@H]3COP(=O)(S)OC2C1F` (single isomer, unassigned) [Compound 141b], in experiment [1], the “DSF ΔTm (° C.) AQ STING” value turned out to be 11.6 °C. In experiment [2], the EC50 stood at 50 nM. The “DSF ΔTm (° C.) WT STING” value in experiment [3] is 5.3 °C.

As to `Nc1ncnc2c1ncn2[C@@H]1O[C@@H]2COP(=O)(O)O[C@H]3[C@@H](O)[C@H](n4cnc5c(N)ncnc54)O[C@@H]3COP(=O)(O)O[C@H]2[C@H]1O` [3′3′c-di-AMP, reference compound], in experiment [1], the “DSF ΔTm (° C.) AQ STING” value is 9.3 °C. Also, the 50% effective concentration (EC50) in experiment [2] came out at 300 nM. Also, the “DSF ΔTm (° C.) WT STING” value in experiment [3] was determined as 2.6 °C.

In the case of `Nc1nc2c(ncn2[C@@H]2O[C@@H]3COP(=O)(O)O[C@H]4[C@@H](O)[C@H](n5cnc6c(=O)[nH]c(N)nc65)O[C@@H]4COP(=O)(O)O[C@H]3[C@H]2O)c(=O)[nH]1` [3′3′c-di-GMP, reference compound], in experiment [1], the “DSF ΔTm (° C.) AQ STING” value was determined as 7.7 °C. Further, in experiment [2], the 50% effective concentration (EC50) stood at 5800 nM. Further, the “DSF ΔTm (° C.) WT STING” value in experiment [3] is 2.6 °C.

For `Nc1nc2c(ncn2[C@@H]2C[C@@H]3COP(=O)(O)O[C@H]4[C@@H](O)[C@H](n5cnc6c(N)ncnc65)O[C@@H]4COP(=O)(O)O[C@H]3[C@H]2O)c(=O)[nH]1` [Compound 101, 2-amino-9-((2R,3R,3aS,7aR,9R,10S,10aR,14aR)-2-(6-amino-9H-purin-9-yl)-3,5,10,12-tetrahydroxy-5,12-dioxidodecahydro-2H-cyclopenta[d]furo[3,2-j][1,3,7,9]tetraoxa[2,8]diphosphacyclo-dodecin-9-yl)-1,9-dihydro-6H-purin-6-one], the “DSF ΔTm (° C.) AQ STING” value in experiment [1] worked out at 11.3 °C. The EC50 in experiment [2] amounted to 800 nM. Besides, the “DSF ΔTm (° C.) WT STING” value in experiment [3] turned out to be 3.6 °C.

Take `Nc1ncnc2c1ncn2[C@@H]1O[C@@H]2COP(=O)(O)OC3C(O)[C@H](n4cnc5c(=O)[nH]cnc54)C[C@@H]3COP(=O)(O)OC2C1O` (stereo partly drawn) [Compound 104, 9-((2R,3R,3a5,7aR,9R,10S,10aR,14aR)-2-(6-amino-9H-purin-9-yl)-3,5,10,12-tetrahydroxy-5,12-dioxidodecahydro-2H-cyclopenta[d]furo[3,2-j][1,3,7,9]tetraoxa[2,8]diphosphacyclododecin-9-yl)-1,9-dihydro-6H-purin-6-one]: the shift in melting temperature (ΔTm) at 150 µM in experiment [1] is 11.4 °C; in experiment [3] it was 3.4 °C. In addition, the 50% effective concentration (EC50) in experiment [2] came to 200 nM.

With `Nc1nc2c(ncn2[C@@H]2C[C@@H]3COP(=O)(O)OC4C[C@H](n5cnc6c(N)ncnc65)O[C@@H]4COP(=O)(O)OC3C2O)c(=O)[nH]1` (stereo partly drawn) [Compound 106, 2-amino-9-((2R,3aS,7aR,9R,10S,10aR,14aR)-2-(6-amino-9H-purin-9-yl)-5,10,12-trihydroxy-5,12-dioxidodecahydro-2H-cyclopenta[d]furo[3,2-j][1,3,7,9]tetraoxa[2,8]diphosphacyclododecin-9-yl)-1,9-dihydro-6H-purin-6-one], the results for the ΔTm at 150 µM in experiment [1] and in experiment [3] were 9 °C and 1.9 °C, respectively. The EC50 in experiment [2] was determined as 400 nM.

In the case of `Nc1ncnc2c1ncn2[C@@H]1O[C@@H]2COP(=O)(O)OC3C(O)[C@H](n4cnc5c(=O)[nH]cnc54)C[C@@H]3COP(=O)(O)OC2C1F` (stereo partly drawn) [Compound 107, 9-((2R,3R,3aR,7aR,9R,10S,10aR,14aR)-2-(6-amino-9H-purin-9-yl)-3-fluoro-5,10,12-trihydroxy-5,12-dioxidodecahydro-2H-cyclopenta[d]furo[3,2-j][1,3,7,9]tetraoxa[2,8]diphosphacyclododecin-9-yl)-1,9-dihydro-6H-purin-6-one], the results for the ΔTm at 150 µM in experiment [1] and in experiment [3] were 16.7 °C and 7.6 °C, respectively. Moreover, the EC50 in experiment [2] turned out to be 10 nM.

Turning to `Nc1nc2c(ncn2[C@@H]2O[C@@H]3COP(=O)(O)OC4C(O)[C@H](n5cnc6c(N)ncnc65)C[C@@H]4COP(=O)(O)OC3C2O)c(=O)[nH]1` (stereo partly drawn) [Compound 108, 2-amino-9-((2R,3R,3aS,7aR,9R,10S,10aR,14aR)-9-(6-amino-9H-purin-9-yl)-3,5,10,12-tetrahydroxy-5,12-dioxidodecahydro-2H-cyclopenta[d]furo[3,2-j][1,3,7,9]tetraox[2,8]diphosphacyclododecin-2-yl)-1,9-dihydro-6H-purin-6-one], the thermal shift (ΔTm) at 150 µM is 14.3 °C in experiment [1] and 5.2 °C in experiment [3]. Also, the EC50 in experiment [2] came to 40 nM.

As to `Nc1nc2c(ncn2[C@H]2CC3OP(=O)(O)OC[C@H]4C[C@@H](n5cnc6c(N)ncnc65)C(O)C4OP(=O)(O)OC[C@H]3O2)c(=O)[nH]1` (stereo partly drawn) [Compound 110, 2-amino-9-((2R,3a5,7aR,9R,10S,10aR,14aR)-9-(6-amino-9H-purin-9-yl)-5,10,12-trihydroxy-5,12-dioxidodecahydro-2H-cyclopenta[d]furo[3,2-j][1,3,7,9]tetraoxa[2,8]diphosphacyclododecin-2-yl)-1,9-dihydro-6H-purin-6-one], the ΔTm at 150 µM in experiment [1] came to 15.7 °C; in experiment [3], 5.8 °C. Also, the concentration giving a half-maximal response (EC50) in experiment [2] came out at 50 nM.

Regarding `Nc1nc2c(ncn2[C@@H]2O[C@@H]3COP(=O)(O)OC4C(O)[C@H](n5cnc6c(N)ncnc65)C[C@@H]4COP(=O)(O)OC3C2O)c(=O)[nH]1` (stereo partly drawn) [Compound 112, 2-amino-9-((2R,3S,3aS,7aR,9R,10S,10aR,14aR)-9-(6-amino-9H-purin-9-yl)-3,5,10,12-tetrahydroxy-5,12-dioxidodecahydro-2H-cyclopenta[d]furo[3,2-j][1,3,7,9]tetraoxa[2,8]diphosphacyclododecin-2-yl)-1,9-dihydro-6H-purin-6-one], the “DSF ΔTm (° C.) AQ STING” value in experiment [1] was found to be 13.2 °C. In experiment [2], the concentration for a half-maximal effect (EC50) is 120 nM. Besides, the “DSF ΔTm (° C.) WT STING” value in experiment [3] worked out at 5.2 °C.

Turning to `Nc1nc2c(ncn2[C@@H]2C[C@@H]3COP(=O)(O)OC4C(O)[C@H](n5cnc6c(N)ncnc65)O[C@@H]4COP(=O)(O)OC3C2O)c(=O)[nH]1` (stereo partly drawn) [Compound 113, 2-amino-9-((2R,3S,3a5,7aR,9R,10S,10aR,14aR)-2-(6-amino-9H-purin-9-yl)-3,5,10,12-tetrahydroxy-5,12-dioxidodecahydro-2H-cyclopenta[d]furo[3,2-j][1,3,7,9]tetraoxa[2,8]diphosphacyclododecin-9-yl)-1,9-dihydro-6H-purin-6-one], the ΔTm at 150 µM in experiment [1] was determined as 7.9 °C; in experiment [3], 2.1 °C. In addition, the EC50 in experiment [2] was 3600 nM.

(Values after patent US11766447B2, “3′3′-cyclic dinucleotide analogue comprising a cyclopentanyl modified nucleotide as sting modulator” (INSTITUTE OF ORGANIC CHEMISTRY AND BIOCHEMISTRY ASCR, V.V.I., priority 2019, dated 2023).)
